Measurements: patent US20090287072A1, “POLYMER COMPOSITIONS, COATINGS AND DEVICES, AND METHODS OF MAKING AND USING THE SAME” (THE REGENTS OF THE UNIVERSITY OF MICHIGAN, priority 2005, published 2009)

What was measured:
[1] = Catalytic NO generation by ditelluride compounds via chemiluminescence NO analyzer (NOA); type: biochemical
Procedure: FIG. 19A also depicts other measurements of catalytic NO generation by ditelluride compounds. […] The rate of NO generation slowly decreases with time to reach a steady-state that lasts until all of the GSNO is consumed.

[2] = NO generation by diorgano ditelluride from GSNO and GSH monitored by NOA; type: biochemical; settings: GSNO and GSH in PBS pH 7.4, EDTA, ambient temperature; FIG. 13

Compound	NO signal upon adding catalytic amounts ([1]; 2.5 μM catalyst, GSNO 25 μM, GSH 100 μM in PBS buffer, FIG. 19A)	RSNO decomposition to NO without RSH ([1]; absence of RSH, FIG. 19B)	NO generated relative to amount of catalyst used [2]
O=C(O)c1ccc([Te][Te]c2ccc(C(=O)O)s2)s1 [DTDTCA 2, 5,5′-ditelluro-2,2′-dithiophenecarboxylic acid]	relatively large signal appears quickly	decomposes RSNO to NO even in the absence of RSH	–
O=C(O)CCCCC[Te][Te]CCCCCC(=O)O [compound 2]	–	–	much more NO than the amount of diorgano ditelluride
